# Assay results published in ChEMBL document CHEMBL1129110, “O-alkylcarboxylate oxime and N-hydroxyurea analogs of substituted indole leukotriene biosynthesis inhibitors” (Bioorg Med Chem Lett, 1996).
# Calls of active or inactive are those of the source. No cut-off for these calls is given here.
# Experiments:
# [1] = target: T1, 5-lipoxygenase/FLAP (Homo sapiens, UniProt P09917+P20292); assay: Inhibition of calcium ionophore (A23187) stimulated LTB4 formation in human neutrophils; format: functional
# T1 sequence (P09917 whole entry): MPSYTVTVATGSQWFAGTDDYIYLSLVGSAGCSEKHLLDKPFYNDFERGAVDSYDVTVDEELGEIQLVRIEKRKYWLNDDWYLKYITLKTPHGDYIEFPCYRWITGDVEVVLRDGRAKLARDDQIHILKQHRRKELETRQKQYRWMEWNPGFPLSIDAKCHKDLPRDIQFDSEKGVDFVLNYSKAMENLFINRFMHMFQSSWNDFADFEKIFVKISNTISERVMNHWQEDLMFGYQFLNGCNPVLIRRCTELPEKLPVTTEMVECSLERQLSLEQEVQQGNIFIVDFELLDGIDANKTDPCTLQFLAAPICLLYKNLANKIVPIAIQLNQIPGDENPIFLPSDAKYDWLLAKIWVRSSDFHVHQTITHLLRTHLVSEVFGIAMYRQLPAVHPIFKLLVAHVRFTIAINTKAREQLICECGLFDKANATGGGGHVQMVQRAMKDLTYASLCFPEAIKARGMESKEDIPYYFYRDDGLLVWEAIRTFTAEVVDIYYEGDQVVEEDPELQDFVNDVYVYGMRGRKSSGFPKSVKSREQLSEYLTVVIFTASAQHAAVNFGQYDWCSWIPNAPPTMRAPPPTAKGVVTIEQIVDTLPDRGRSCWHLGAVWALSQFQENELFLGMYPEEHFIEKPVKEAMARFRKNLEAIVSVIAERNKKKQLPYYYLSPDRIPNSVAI
# T1 sequence (P20292 whole entry): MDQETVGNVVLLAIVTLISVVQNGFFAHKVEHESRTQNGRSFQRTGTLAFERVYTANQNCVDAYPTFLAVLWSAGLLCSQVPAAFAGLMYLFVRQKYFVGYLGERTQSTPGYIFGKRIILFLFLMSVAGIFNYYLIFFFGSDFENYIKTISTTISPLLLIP
# [2] = tested on: Rattus norvegicus; assay: Compound was tested in vivo against rat anaphylaxis in the peritoneal cavity at concentration of 100 umol/kg; format: functional
# [3] = target: T1, 5-lipoxygenase/FLAP; assay: (§1) Human whole blood was stimulated with calcium ionophore (A23187) and LTB 4 measured by enzyme immunoassay; format: functional, tissue-based
# [4] = target: T2, Polyunsaturated fatty acid 5-lipoxygenase (Rattus norvegicus, UniProt P12527); assay: Compound was tested for inhibition of 5-lipoxygenase activity in a broken cell supernatant rat basophilic leukemia cells at concentration of 32 uM; Not active
# T2 sequence (P12527 whole entry): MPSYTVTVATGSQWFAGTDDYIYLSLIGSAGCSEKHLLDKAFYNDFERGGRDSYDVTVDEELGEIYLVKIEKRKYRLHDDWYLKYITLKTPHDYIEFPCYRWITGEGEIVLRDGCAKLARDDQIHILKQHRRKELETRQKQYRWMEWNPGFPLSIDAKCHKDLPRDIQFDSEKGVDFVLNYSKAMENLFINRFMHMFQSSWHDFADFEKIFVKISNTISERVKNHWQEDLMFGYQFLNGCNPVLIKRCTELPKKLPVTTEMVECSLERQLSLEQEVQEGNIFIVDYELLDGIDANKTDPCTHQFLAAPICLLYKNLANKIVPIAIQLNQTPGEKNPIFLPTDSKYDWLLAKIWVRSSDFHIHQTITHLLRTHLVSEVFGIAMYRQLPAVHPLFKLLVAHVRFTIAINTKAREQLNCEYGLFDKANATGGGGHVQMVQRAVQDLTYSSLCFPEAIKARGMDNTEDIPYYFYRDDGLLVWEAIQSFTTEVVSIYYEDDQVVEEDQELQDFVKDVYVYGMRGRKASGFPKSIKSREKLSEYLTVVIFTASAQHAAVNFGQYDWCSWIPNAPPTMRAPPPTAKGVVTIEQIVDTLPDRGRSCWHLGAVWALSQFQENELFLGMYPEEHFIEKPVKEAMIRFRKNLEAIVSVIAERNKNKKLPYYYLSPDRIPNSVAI
# [5] = tested on: Rattus norvegicus; assay: Compound was tested in vivo against rat anaphylaxis in the peritoneal cavity; format: functional
# [6] = target: T2, Polyunsaturated fatty acid 5-lipoxygenase; assay: Compound was tested for inhibition of 5-lipoxygenase activity in a broken cell supernatant rat basophilic leukemia cells at concentration of 50 uM; Not active
# [7] = tested on: Rattus norvegicus; assay: Compound was tested in vivo against rat anaphylaxis in the peritoneal cavity at concentration of 1 umol/kg; format: functional
# [8] = target: T2, Polyunsaturated fatty acid 5-lipoxygenase; assay: Compound was tested for inhibition of 5-lipoxygenase activity in a broken cell supernatant rat basophilic leukemia cells
# [9] = organism: Homo sapiens; assay: Compound was tested for inhibition of calcium ionophore (A23187) stimulated LTB4 formation in human neutrophils at 100 nM; format: functional
# [10] = tested on: Rattus norvegicus; assay: Compound was tested in vivo against rat anaphylaxis in the peritoneal cavity at concentration of 100 umol/kg; Not active; format: functional, organism-based
# [11] = tested on: Rattus norvegicus; assay: Compound was tested in vivo against rat anaphylaxis in the peritoneal cavity at 60 umol/kg; format: functional
# [12] = organism: Homo sapiens; assay: as §1; format: functional
# [13] = tested on: Rattus norvegicus; assay: Compound was tested in vivo against rat anaphylaxis in the peritoneal cavity; Not active; format: functional, organism-based
Compound,IC50 [1] [nM],IC50 [3] [nM],ED50 [5] [µmol/kg],other results
CC(C)c1ccc2c(c1)c(SC(C)(C)C)c(CC(C)(C)C(=O)O)n2Cc1ccc(Cl)cc1,0.03,340,16,IC50 [4]: Not Active
CC(C)(C)Sc1c(CC(C)(C)C(=O)O)n(Cc2ccc(Cl)cc2)c2ccc(OCc3nc4ccccc4s3)cc12,10,360,,inhibition in vivo at 1 µmol/kg [7]: 71%
CC(C)c1ccc2c(c1)c(SC(C)(C)C)c(CC(C)(C)CN(O)C(N)=O)n2Cc1ccc(Cl)cc1,0.17,1600,46,IC50 [8]: 7500 nM
CC(C)c1ccc2c(c1)c(SC(C)(C)C)c(CC(C)(C)/C=N/OCC(=O)O)n2Cc1ccc(Cl)cc1,0.1,680,3,
CC(C)(/C=N/OCC(=O)O)Cc1c(SC(C)(C)C)c2cc(OCc3ccc4ccccc4n3)ccc2n1Cc1ccc(Cl)cc1,12,600,0.24,
CC(C)(/C=N/OCC(=O)O)Cc1c(SC(C)(C)C)c2cc(OCc3cscn3)ccc2n1Cc1ccc(Cl)cc1,11,180,44,
CC(C)(C)Sc1c(CC(C)(C)C(=O)O)n(Cc2ccc(Cl)cc2)c2ccc(OCc3ccc4ccccc4c3)cc12,12,4420,,ED50 [10]: inactive
CC(C)(C)Sc1c(CC(C)(C)C(=O)O)n(Cc2ccc(Cl)cc2)c2ccc(OCc3ccc4ccccc4n3)cc12 [QUIFLAPON],8,200,1.6,
CC(C)(/C=N/OCC(=O)O)Cc1c(SC(C)(C)C)c2cc(OCc3cccc(Cl)n3)ccc2n1Cc1ccc(Cl)cc1,10,230,2.6,
CC(C)(C)Sc1c(CC(C)(C)C(=O)O)n(Cc2ccc(Cl)cc2)c2ccc(OCc3cccc(Cl)n3)cc12,17,110,1.2,

# The next lines start with results.
IC50 [1] [nM],IC50 [3] [nM],Compound,ED50 [5] [µmol/kg],other results
0.27,2200,CC(C)c1ccc2c(c1)c(SC(C)(C)C)c(CC(C)(C)/C=N/O)n2Cc1ccc(Cl)cc1,,inhibition in vivo at 100 µmol/kg [2]: 46%
0.18,970,CC(C)c1ccc2c(c1)c(SC(C)(C)C)c(CC(C)(C)CNC(N)=O)n2Cc1ccc(Cl)cc1,11,IC50 [6]: Not Active
4,40,CC(C)(C)Sc1c(CC(C)(C)C(=O)O)n(Cc2ccc(Cl)cc2)c2ccc(OCc3cscn3)cc12,1.8,
17,1090,CC(C)(C)Sc1c(CC(C)(C)C(=O)O)n(Cc2ccc(Cl)cc2)c2ccc(OCc3cccnc3)cc12,,inhibition in vivo at 100 µmol/kg [2]: 4%
,840,CC(C)(C)Sc1c(CC(C)(C)C(=O)O)n(Cc2ccc(Cl)cc2)c2ccc(OCc3ccncc3)cc12,,inhibition at 0.1 µM [9]: 100%; ED50 [10]: inactive
0.15,1300,CC(C)c1ccc2c(c1)c(SC(C)(C)C)c(CC(C)(C)NC(=O)N(C)O)n2Cc1ccc(Cl)cc1,,IC50 [8]: 7500 nM; inhibition in vivo at 60 µmol/kg [11]: 49%
7,,CC(C)(C)Sc1c(CC(C)(C)C(=O)O)n(Cc2ccc(Cl)cc2)c2ccc(OCc3nccs3)cc12,,Inhibition [12]: 41%; inhibition in vivo at 1 µmol/kg [7]: 16%
13,600,CC(C)(/C=N/OCC(=O)O)Cc1c(SC(C)(C)C)c2cc(OCc3ccccn3)ccc2n1Cc1ccc(Cl)cc1,0.12,
,50,CC(C)(C)Sc1c(CC(C)(C)C(=O)O)n(Cc2ccc(Cl)cc2)c2ccc(OCc3ccccn3)cc12,0.16,
0.34,11000,CO/N=C/C(C)(C)Cc1c(SC(C)(C)C)c2cc(C(C)C)ccc2n1Cc1ccc(Cl)cc1,,ED50 [13]: inactive
